Data: PubChem BioAssay AID248 (DTP/NCI, 2004)
Several values for one entry are separate records, joined by “and”; a condition that tells them apart may be missing. Identical values can stand only once. Inconclusive results and toxic doses are left out.

Test system: L1210 leukemia ip in BDF1 mice, survival T/C
Test: NCI In Vivo Anticancer Drug Screen. Data for tumor model L1210 Leukemia (intraperitoneal) in B6D2F1 (BDF1) mice
Conditions: higher = longer survival
Method in brief: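 Transplanted-tumor mice were given test agent; controls received vehicle only. Survival readings from the two groups were divided (treated over control).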

## CO[C@@]12[C@H](COC(N)=O)C3=C(C(=O)C(C)=C(N)C3=O)N1C[C@@H]1N[C@@H]12
endpoint: mean survival time, dose: 0.1 mg/kg/injection, schedule: Q01DX Z (ip), vehicle: carboxymethylcellulose (CMC)
  T/C: 110 % of control
endpoint: mean survival time, dose: 0.18 mg/kg/injection, schedule: Q04DX002 (ip), vehicle: saline
  T/C: 106 % of control and 110 % of control
endpoint: mean survival time, dose: 0.2 mg/kg/injection, schedule: Q01DX Z (ip), vehicle: carboxymethylcellulose (CMC)
  T/C: 110 % of control
endpoint: mean survival time, dose: 0.2 mg/kg/injection, schedule: Q02DX010 (ip), vehicle: carboxymethylcellulose (CMC)
  T/C: 118 % of control
endpoint: mean survival time, dose: 0.25 mg/kg/injection, schedule: Q01DX Z (ip), vehicle: carboxymethylcellulose (CMC)
  T/C: 107 % of control
endpoint: mean survival time, dose: 0.32 mg/kg/injection, schedule: Q01DX Z (ip), vehicle: carboxymethylcellulose (CMC)
  T/C: 98 % of control
endpoint: mean survival time, dose: 0.35 mg/kg/injection, schedule: Q01DX009 (ip), vehicle: saline
  T/C: 120 % of control
endpoint: mean survival time, dose: 0.35 mg/kg/injection, schedule: Q04DX002 (ip), vehicle: saline
  T/C: 103 % of control
endpoint: mean survival time, dose: 0.4 mg/kg/injection, schedule: Q01DX Z (ip), vehicle: carboxymethylcellulose (CMC)
  T/C: 114 % of control and 116 % of control
endpoint: mean survival time, dose: 0.4 mg/kg/injection, schedule: Q02DX010 (ip), vehicle: carboxymethylcellulose (CMC)
  T/C: 111 % of control and 90 % of control
endpoint: mean survival time, dose: 0.5 mg/kg/injection, schedule: Q01DX Z (ip), vehicle: carboxymethylcellulose (CMC)
  T/C: 107 % of control and 122 % of control
endpoint: mean survival time, dose: 0.53 mg/kg/injection, schedule: Q01DX Z (ip), vehicle: carboxymethylcellulose (CMC)
  T/C: 114 % of control
endpoint: mean survival time, dose: 0.7 mg/kg/injection, schedule: Q01DX001 (ip), vehicle: saline
  T/C: 109 % of control
endpoint: mean survival time, dose: 0.7 mg/kg/injection, schedule: Q04DX002 (ip), vehicle: saline
  T/C: 103 % of control and 111 % of control
endpoint: mean survival time, dose: 0.75 mg/kg/injection, schedule: Q01DX001 (ip), vehicle: water
  T/C: 118 % of control
endpoint: mean survival time, dose: 0.8 mg/kg/injection, schedule: Q02DX010 (ip), vehicle: carboxymethylcellulose (CMC)
  T/C: 104 % of control and 121 % of control
endpoint: mean survival time, dose: 0.86 mg/kg/injection, schedule: Q02DX010 (ip), vehicle: carboxymethylcellulose (CMC)
  T/C: 117 % of control
endpoint: mean survival time, dose: 0.9 mg/kg/injection, schedule: Q02DX010 (ip), vehicle: other
  T/C: 157 % of control and 219 % of control
endpoint: mean survival time, dose: 0.96 mg/kg/injection, schedule: Q01DX001 (ip), vehicle: acetone
  T/C: 114 % of control
endpoint: mean survival time, dose: 1.0 mg/kg/injection, schedule: Q01DX001 (ip), vehicle: saline
  T/C: 111 % of control
endpoint: mean survival time, dose: 1.0 mg/kg/injection, schedule: Q01DX Z (ip), vehicle: carboxymethylcellulose (CMC)
  T/C: 161 % of control
endpoint: mean survival time, dose: 1.1 mg/kg/injection, schedule: Q01DX009 (ip), vehicle: saline
  T/C: 155 % of control
endpoint: mean survival time, dose: 1.12 mg/kg/injection, schedule: Q01DX015 (ip), vehicle: carboxymethylcellulose (CMC)
  T/C: 171 % of control
endpoint: mean survival time, dose: 1.25 mg/kg/injection, schedule: Q01DX015 (ip), vehicle: saline
  T/C: 162 % of control
endpoint: mean survival time, dose: 1.3 mg/kg/injection, schedule: Q02DX010 (ip), vehicle: other
  T/C: 167 % of control and 207 % of control
endpoint: mean survival time, dose: 1.4 mg/kg/injection, schedule: Q01DX001 (ip), vehicle: acetone
  T/C: 111 % of control
endpoint: mean survival time, dose: 1.4 mg/kg/injection, schedule: Q01DX009 (ip), vehicle: saline
  T/C: 154 % of control and 178 % of control
endpoint: mean survival time, dose: 1.5 mg/kg/injection, schedule: Q01DX001 (ip), vehicle: saline
  T/C: 115 % of control
endpoint: mean survival time, dose: 1.5 mg/kg/injection, schedule: Q01DX001 (ip), vehicle: water
  T/C: 117 % of control
endpoint: mean survival time, dose: 1.5 mg/kg/injection, schedule: Q07DX003 (ip), vehicle: saline
  T/C: 123 % of control
endpoint: mean survival time, dose: 1.5 mg/kg/injection, schedule: Q## X003 (ip), vehicle: saline
  T/C: 118 % of control
endpoint: mean survival time, dose: 1.6 mg/kg/injection, schedule: Q01DX001 (ip), vehicle: saline
  T/C: 117 % of control
endpoint: mean survival time, dose: 1.9 mg/kg/injection, schedule: Q01DX009 (ip), vehicle: saline
  T/C: 97 % of control
endpoint: mean survival time, dose: 2.0 mg/kg/injection, schedule: Q01DX Z (ip), vehicle: carboxymethylcellulose (CMC)
  T/C: 106 % of control
endpoint: mean survival time, dose: 2.0 mg/kg/injection, schedule: Q02DX010 (ip), vehicle: other
  T/C: 180 % of control and 184 % of control
endpoint: mean survival time, dose: 2.12 mg/kg/injection, schedule: Q02DX010 (ip), vehicle: carboxymethylcellulose (CMC)
  T/C: 158 % of control
endpoint: mean survival time, dose: 2.2 mg/kg/injection, schedule: Q01DX001 (ip), vehicle: saline
  T/C: 108 % of control
endpoint: mean survival time, dose: 2.5 mg/kg/injection, schedule: Q01DX015 (ip), vehicle: saline
  T/C: 154 % of control
endpoint: mean survival time, dose: 2.8 mg/kg/injection, schedule: Q01DX009 (ip), vehicle: saline
  T/C: 93 % of control
endpoint: mean survival time, dose: 3.0 mg/kg/injection, schedule: Q01DX001 (ip), vehicle: saline
  T/C: 123 % of control
endpoint: mean survival time, dose: 3.0 mg/kg/injection, schedule: Q02DX010 (ip), vehicle: other
  T/C: 115 % of control and 118 % of control
endpoint: mean survival time, dose: 3.0 mg/kg/injection, schedule: Q## X003 (ip), vehicle: saline
  T/C: 152 % of control
endpoint: mean survival time, dose: 3.2 mg/kg/injection, schedule: Q02DX010 (ip), vehicle: carboxymethylcellulose (CMC)
  T/C: 184 % of control
endpoint: mean survival time, dose: 3.3 mg/kg/injection, schedule: Q01DX001 (ip), vehicle: saline
  T/C: 116 % of control
endpoint: mean survival time, dose: 4.5 mg/kg/injection, schedule: Q02DX010 (ip), vehicle: other
  T/C: 86 % of control and 88 % of control
endpoint: mean survival time, dose: 5.0 mg/kg/injection, schedule: Q01DX001 (ip), vehicle: saline
  T/C: 118 % of control
endpoint: mean survival time, dose: 5.0 mg/kg/injection, schedule: Q01DX015 (ip), vehicle: saline
  T/C: 89 % of control
endpoint: mean survival time, dose: 6.0 mg/kg/injection, schedule: Q01DX001 (ip), vehicle: saline
  T/C: 196 % of control
endpoint: mean survival time, dose: 6.0 mg/kg/injection, schedule: Q01DX001 (ip), vehicle: water
  T/C: 174 % of control
endpoint: mean survival time, dose: 6.7 mg/kg/injection, schedule: Q02DX010 (ip), vehicle: carboxymethylcellulose (CMC)
  T/C: 84 % of control
endpoint: mean survival time, dose: 7.5 mg/kg/injection, schedule: Q01DX001 (ip), vehicle: saline
  T/C: 123 % of control
endpoint: mean survival time, dose: 10.6 mg/kg/injection, schedule: Q04DX002 (ip), vehicle: saline
  T/C: 171 % of control
endpoint: mean survival time, dose: 11.0 mg/kg/injection, schedule: Q01DX001 (ip), vehicle: acetone
  T/C: 193 % of control
endpoint: mean survival time, dose: 12.0 mg/kg/injection, schedule: Q## X003 (ip), vehicle: saline
  T/C: 100 % of control
endpoint: mean survival time, dose: 45.0 micrograms/kg/injection, schedule: Q01DX009 (ip), vehicle: saline
  T/C: 99 % of control and 117 % of control
endpoint: mean survival time, dose: 90.0 micrograms/kg/injection, schedule: Q01DX009 (ip), vehicle: saline
  T/C: 106 % of control and 120 % of control
endpoint: mean survival time, dose: 180.0 micrograms/kg/injection, schedule: Q01DX009 (ip), vehicle: saline
  T/C: 104 % of control and 120 % of control
endpoint: mean survival time, dose: 350.0 micrograms/kg/injection, schedule: Q01DX009 (ip), vehicle: saline
  T/C: 121 % of control
endpoint: mean survival time, dose: 1400.0 micrograms/kg/injection, schedule: Q01DX009 (ip), vehicle: saline
  T/C: 153 % of control
endpoint: median survival time, dose: 1.5 mg/kg/injection, schedule: Q01DX001 (ip), vehicle: saline
  T/C: 100 % of control
endpoint: median survival time, dose: 3.0 mg/kg/injection, schedule: Q01DX001 (ip), vehicle: saline
  T/C: 109 % of control
endpoint: median survival time, dose: 6.0 mg/kg/injection, schedule: Q01DX001 (ip), vehicle: saline
  T/C: 109 % of control
endpoint: median survival time, dose: 12.0 mg/kg/injection, schedule: Q01DX001 (ip), vehicle: saline
  T/C: 117 % of control

## Cc1ccc(-n2ccnc2C)c(N=Cc2ccc(N(CCCl)CCCl)cc2C)c1
endpoint: mean survival time, dose: 100.0 mg/kg/injection, schedule: Q04DX002 (ip), vehicle: Klucel (hydroxypropylcellulose) (HPC)
  T/C: 98 % of control
endpoint: mean survival time, dose: 200.0 mg/kg/injection, schedule: Q04DX002 (ip), vehicle: Klucel (hydroxypropylcellulose) (HPC)
  T/C: 102 % of control
endpoint: mean survival time, dose: 400.0 mg/kg/injection, schedule: Q04DX002 (ip), vehicle: Klucel (hydroxypropylcellulose) (HPC)
  T/C: 106 % of control

## O=C(Nc1ccccc1)OC1CCC2CC21 (stereo not drawn)
endpoint: mean survival time, dose: 50.0 mg/kg/injection, schedule: Q01DX009 (ip), vehicle: saline with Tween-80
  T/C: 91 % of control
endpoint: mean survival time, dose: 100.0 mg/kg/injection, schedule: Q01DX009 (ip), vehicle: saline with Tween-80
  T/C: 87 % of control
